Laboratory results taken from paper PMC9807592, “New thioxothiazolidinyl-acetamides derivatives as potent urease inhibitors: design, synthesis, in vitro inhibition, and molecular dynamic simulation” (Scientific Reports, 2023).
In brackets after ≈: the same amount, converted by molar mass. Like-named read-outs stand apart in the source and are kept apart here.

Key:
urease [1] = target: T1, urease (Canavalia ensiformis, UniProt P07374); assay: biochemical; type: biochemical
Method: The assay was performed exactly according to our previous report. Briefly, 850 μL of urea and 15 μL urease (0.135 units dissolved in PBS, pH 7.4) were added to 100 μL of the synthesized derivatives at different concentrations. After 30 min, to 100 μL of the incubated solution, 500 μL solution I (5.0 g phenol and 25.0 mg sodium nitroprusside in 500 mL water) was added followed by the addition of 500 μL of solution II (2.5 g sodium hydroxide, 4.2 mL sodium hypochlorite, and 5% chlorine in 500 mL water) which was further incubated at 37 °C for 30 min. The absorbance was determined by measuring indophenols at 625 nm. Thiourea was used as the standard inhibitor for urease. The IC50 values for all synthesized compounds were calculated using GraphPad Prism software (GraphPad Software, Inc., San Diego, CA)[20].

urease [2] = target: T1, urease; assay: Enzyme kinetic study of urease inhibition (Lineweaver–Burk); type: biochemical
Method: A Lineweaver–Burk plot was generated to identify the type of inhibition, and the Michaelis–Menten constant (Km) value was determined from the plot between the reciprocal of the substrate concentration (1/[S]) and reciprocal of enzyme rate (1/V) over various inhibitor concentrations. The experimental inhibitor constant (Ki) value was constructed by secondary plots of the inhibitor concentration [I] versus Km.

[3] = tested on: urease-positive clinical isolate of P. vulgaris; assay: Urease inhibitory activity against P. vulgaris (Christensen's urea medium, 560 nm); type: cell-based; conditions: Proteus vulgaris; for IC50: 24 h at 37 °C, read at 560 nm
Method: To assess the inhibition of urease activity by synthetic compounds, Christensen’s urea.
medium containing urea and phenol red (pH indicator) was used for the preparation of two-fold serial dilutions of compounds in 96-well microtiter plates. Cell suspension of a urease-positive clinical isolate of P. vulgaris was prepared in a urea medium and added to each well. The turbidity of bacterial suspension was adjusted to 0.5 McFarland using a spectrophotometer, and also, the density of inoculated suspension was 1 × 10^6 CFU/ml. The concentrations of compounds were in the range of 1–512 µg/ml.
Inoculated media without adding any compound was considered a positive control, while uninoculated media were used as a negative control (blank). The anti-urease activity was assessed spectroscopically at 560 nm after 24 h incubation at 37 °C[14].

E. coli ATCC 25922 = assay: Antimicrobial activity, broth microdilution (CLSI); type: cell-based; conditions: Escherichia coli, ATCC25922, read-out: MIC
Method: (§1) Then, 100 μL of each dilution was transferred into the well of a microtiter plate and inoculated with 100 μL of cell suspension with a final density of 1–5 × 10^3 CFU/ml for yeasts and 1–1.5 × 10^6 cells/ml for bacteria. Plates were incubated at proper temperature overnight, and the minimum inhibitory concentration (MIC) of compounds was determined as the lowest concentration that prevented visible growth of tested microorganisms compared with the growth in the control wells (wells without tested compounds). […] All experiments were performed in duplicate[30],[31].

S. aureus ATCC 25923 = assay: Antimicrobial activity, broth microdilution (CLSI); type: cell-based; conditions: Staphylococcus aureus, ATCC25923
Method: as §1

[4] = tested on: clinical isolate of P. vulgaris; assay: Antimicrobial activity, broth microdilution (CLSI); type: cell-based; conditions: Proteus vulgaris
Method: as §1

C. albicans ATCC 10261 = assay: Antimicrobial activity, broth microdilution (CLSI); type: cell-based; conditions: Candida albicans, ATCC10261
Method: The antimicrobial activity of designed compounds was investigated using broth microdilution.
Briefly, twofold serial dilutions of the compounds were prepared in Mueller–Hinton Broth (MHB, HiMedia) for bacterial strains and RPMI-1640 (Sigma-Aldrich) for yeast strain (Ranging 1–512 µg/ml). Then, 100 μL of each dilution was transferred into the well of a microtiter plate and inoculated with 100 μL of cell suspension with a final density of 1–5 × 10^3 CFU/ml for yeasts and 1–1.5 × 10^6 cells/ml for bacteria. Plates were incubated at proper temperature overnight, and the minimum inhibitory concentration (MIC) of compounds was determined as the lowest concentration that prevented visible growth of tested microorganisms compared with the growth in the control wells (wells without tested compounds). Moreover, the minimum bactericidal/fungicidal concentration (MBC/MFC) of compounds was determined by transferring the 10 µl of clear wells into the agar media. Standard antibacterial and antifungal agents (Ciprofloxacin and Fluconazole) were evaluated. All experiments were performed in duplicate[30],[31].

[5] = In vitro cytotoxic evaluation (MTT assay); type: cell-based; conditions: human, MOLT-4 cells
Method: MOLT-4 (human acute lymphoblastic leukemia) cells were cultures in RPMI-1640 medium supplemented with 10% heat-inactivated fetal bovine serum. Cell viability was measured by the MTT assay. MOLT-4 cells were seeded into 96-well micro-culture plates. After 24 h, the culture medium was replaced with a medium containing different concentrations of newly synthesized derivatives. Control wells were supplemented with the same volume of growth medium not containing any drugs. Cells were then incubated at 37 °C for 72 h. At the end of the exposure time, the medium was removed and MTT solution of 0.5 mg/ml was added to each well. The plates were incubated at 37 °C for 4 h, after which DMSO was added to each well to solubilize the formed formazan crystals, and the absorbance of each well was read with a microplate reader at 570 nm.

urease [6] = conditions: read-out: IC50, urease inhibition, cited from earlier work
[7] = mean ± SEM, at least three experiments, read-out: IC50 (μM), urease inhibitory activity

T1 sequence (P07374 whole entry, looked up): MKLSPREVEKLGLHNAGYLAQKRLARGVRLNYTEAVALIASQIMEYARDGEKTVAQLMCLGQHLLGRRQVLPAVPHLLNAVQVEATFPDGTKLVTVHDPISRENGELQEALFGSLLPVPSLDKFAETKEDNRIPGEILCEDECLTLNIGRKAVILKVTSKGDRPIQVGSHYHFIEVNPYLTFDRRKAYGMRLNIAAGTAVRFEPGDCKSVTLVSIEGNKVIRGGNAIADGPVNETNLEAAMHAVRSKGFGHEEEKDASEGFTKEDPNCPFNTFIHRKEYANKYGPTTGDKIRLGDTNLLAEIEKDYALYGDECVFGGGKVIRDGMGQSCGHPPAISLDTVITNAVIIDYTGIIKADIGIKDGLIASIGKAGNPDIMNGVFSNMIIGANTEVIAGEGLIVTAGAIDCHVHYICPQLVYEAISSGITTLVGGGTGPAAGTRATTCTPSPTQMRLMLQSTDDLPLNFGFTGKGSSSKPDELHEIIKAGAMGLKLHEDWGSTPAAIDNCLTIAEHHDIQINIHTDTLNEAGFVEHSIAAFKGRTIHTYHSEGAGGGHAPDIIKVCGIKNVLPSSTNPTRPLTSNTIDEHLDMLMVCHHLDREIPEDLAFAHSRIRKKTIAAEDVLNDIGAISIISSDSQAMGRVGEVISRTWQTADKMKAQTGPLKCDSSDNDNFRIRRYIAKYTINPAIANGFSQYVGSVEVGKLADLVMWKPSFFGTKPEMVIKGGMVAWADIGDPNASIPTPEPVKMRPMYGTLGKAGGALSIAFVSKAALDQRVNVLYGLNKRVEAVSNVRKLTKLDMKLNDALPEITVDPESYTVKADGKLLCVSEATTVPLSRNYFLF

Row | Structure (SMILES) | IC50 (urease [1]) [µM] | IC50 [3] [µg/mL] | MIC (E. coli ATCC 25922) [µg/mL] | MIC (S. aureus ATCC 25923) [µg/mL] | MIC [4] [µg/mL] | MIC (C. albicans ATCC 10261) [µg/mL] | viability at 72 h, 100 µM [5] [%] | melting point [°C] | also measured
1 | CCCCN1C(=O)[C@@H](CC(=O)NCc2ccccc2)SC1=S (racemic) [Compound 6i, N-benzyl-2-(3-butyl-4-oxo-2-thioxothiazolidin-5-yl)acetamide] | 1.47 ± 0.11 | 17.8 ± 3.75 (≈ 52.8 µM) | > 512 | > 512 | > 512 | > 512 | 97.8 ± 2.5 | 172 to 174 | Ki (urease [2]): 1170 nM; type of inhibition (urease [2]; Lineweaver–Burk plot, 6i at 0, 0.5, 1 and 2 µM): competitive
2 | O=C(O)[C@@H]1CSCN1 [A] |  |  |  |  |  |  |  |  | IC50 (urease [6]; thiazolidine carboxylic acid lead): 3030 ± 98 nM
3 | COc1cc(/C=N\N=C2\NC(=O)CS2)c(OC)cc1Br [C] |  |  |  |  |  |  |  |  | IC50 (urease [6]; 4-thiazolidinone analogs): 1730 ± 1000 nM
4 | O=C(CC1SC(=S)N(Cc2ccccc2)C1=O)NCc1ccccc1 (stereo not shown) [Compound 6a, N-benzyl-2-(3-benzyl-4-oxo-2-thioxothiazolidin-5-yl)acetamide] | 2.22 ± 0.36 |  | > 512 | > 512 | > 512 | > 512 | 95.5 ± 2.7 | 168 to 170 | 
5 | Cc1ccc(CNC(=O)CC2SC(=S)N(Cc3ccccc3)C2=O)cc1 (stereo not shown) [Compound 6b, 2-(3-benzyl-4-oxo-2-thioxothiazolidin-5-yl)-N-(4-methylbenzyl)acetamide] | 4.02 ± 1.12 |  | > 512 | > 512 | > 512 | > 512 | 91.2 ± 4.2 | 167 to 169 | 
6 | O=C(CC1SC(=S)N(Cc2ccccc2)C1=O)NCc1ccc(F)cc1 (stereo not shown) [Compound 6c, 2-(3-benzyl-4-oxo-2-thioxothiazolidin-5-yl)-N-(4-fluorobenzyl)acetamide] | 2.15 ± 0.18 |  | > 512 | > 512 | > 512 | > 512 | 92.7 ± 3.6 | 169 to 171 | 
7 | CCCNC(=O)CC1SC(=S)N(Cc2ccccc2)C1=O (stereo not shown) [Compound 6d, 2-(3-benzyl-4-oxo-2-thioxothiazolidin-5-yl)-N-propylacetamide] | 1.85 ± 0.66 | 126 ± 8.65 (≈ 390 µM) | > 512 | > 512 | > 512 | > 512 | 95.5 ± 3.2 | 165 to 167 | 
8 | CCCCNC(=O)CC1SC(=S)N(Cc2ccccc2)C1=O (stereo not shown) [Compound 6e, 2-(3-benzyl-4-oxo-2-thioxothiazolidin-5-yl)-N-butylacetamide] | 1.64 ± 0.45 | 15.3 ± 2.4 (≈ 45.4 µM) | > 512 | > 512 | > 512 | > 512 | 91.7 ± 2.8 | 166 to 168 | 
9 | CC(C)CNC(=O)CC1SC(=S)N(Cc2ccccc2)C1=O (stereo not shown) [Compound 6f, 2-(3-benzyl-4-oxo-2-thioxothiazolidin-5-yl)-N-isobutylacetamide] | 1.59 ± 0.47 | 32.4 ± 5.26 (≈ 96.2 µM) | > 512 | > 512 | > 512 | > 512 | 91.9 ± 1.3 | 164 to 166 | 
10 | C=CCNC(=O)CC1SC(=S)N(Cc2ccccc2)C1=O (stereo not shown) [Compound 6g, N-allyl-2-(3-benzyl-4-oxo-2-thioxothiazolidin-5-yl)acetamide] | 1.61 ± 0.5 | 61.7 ± 6.41 (≈ 192 µM) | > 512 | > 512 | > 512 | > 512 | 91.6 ± 3.7 |  | 
11 | O=C(CC1SC(=S)N(Cc2ccccc2)C1=O)NC1CCCC1 (stereo not shown) [Compound 6h, 2-(3-benzyl-4-oxo-2-thioxothiazolidin-5-yl)-N-cyclopentylacetamide] | 1.86 ± 0.29 | ≥ 512 | > 512 | > 512 | > 512 | > 512 | 95 ± 4.2 | 167 to 169 | inhibition at 512 µg/mL ([3]; at 512 µg/ml): 48.5%
12 | CCCCN1C(=O)C(CC(=O)NCc2ccc(C)cc2)SC1=S (stereo not shown) [Compound 6j, 2-(3-butyl-4-oxo-2-thioxothiazolidin-5-yl)-N-(4-methylbenzyl)acetamide] | 5.66 ± 0.79 |  |  |  |  |  | 97.7 ± 4.6 | 174 to 176 | 
13 | CCCCN1C(=O)C(CC(=O)NCC(C)C)SC1=S (stereo not shown) [Compound 6k, 2-(3-butyl-4-oxo-2-thioxothiazolidin-5-yl)-N-isobutylacetamide] | 1.91 ± 0.57 |  | > 512 | > 512 | > 512 | > 512 | 98.5 ± 1.4 | 170 to 172 | 
14 | CC(C)CN1C(=O)C(CC(=O)NCc2ccccc2)SC1=S (stereo not shown) [Compound 6l, N-benzyl-2-(3-isobutyl-4-oxo-2-thioxothiazolidin-5-yl)acetamide] | 4.38 ± 0.61 |  | > 512 | > 512 | > 512 | > 512 | 93.6 ± 4.5 | 169 to 171 | 
15 | Cc1ccc(CNC(=O)CC2SC(=S)N(CC(C)C)C2=O)cc1 (stereo not shown) [Compound 6m, 2-(3-isobutyl-4-oxo-2-thioxothiazolidin-5-yl)-N-(4-methylbenzyl)acetamide] | 3.09 ± 1.08 |  | > 512 | > 512 | > 512 | > 512 | 97.7 ± 2.9 | 173 to 175 | 
16 | N#Cc1ccc(C(=O)NN2C(=O)CSC2c2ccccc2O)cc1 (stereo not shown) [D] |  |  |  |  |  |  |  |  | IC50 (urease [6]; arylhydrazide Schiff base-thiazolidinones): 4100 ± 20 nM
17 | COc1cccc2c1C(=O)c1c(O)c3c(c(O)c1C2=O)C[C@@](O)(C(=O)CO)C[C@@H]3O[C@H]1C[C@H](N)[C@H](O)[C@H](C)O1 [Doxorubicin, reference compound] |  |  |  |  |  |  |  |  | IC50 at 72 h ([5]; read-out: IC50 (µM), cytotoxicity): 12.7 ± 2.4 µM
18 | OC(Cn1cncn1)(Cn1cncn1)c1ccc(F)cc1F [Fluconazole, reference compound] |  |  |  |  |  | 4 (≈ 13.1 µM) |  |  | 
19 | NC(=O)NO [Hydroxyurea, reference compound] |  |  |  |  |  |  |  |  | IC50 (urease [1]; mean ± SEM, at least three experiments, listed as hydroxyurea, read-out: IC50 (μM), urease inhibitory activity): 100 µM; IC50 (urease [1]; [7]): 100 ± 2.5 µM
20 | NC(N)=S [Thiourea, reference compound] |  |  |  |  |  |  |  |  | IC50 (urease [1]; [7]): 23.6 ± 0.84 µM
